Drawing on PubChem BioAssay AID1259407 (Chemical Carcinogenesis Research Information System (CCRIS), 2018), this text covers mutagenic call for six molecules.

The data set relates to CCRIS mutagenicity, Ames/micronucleus/aberration tests. Nature of the data set: CCRIS mutagenicity studies.
The mark [1] stands for this setting: Test System: AMES SALMONELLA TYPHIMURIUM, Strain/Indicator: TA98, Metabolic Activation: NONE, Method: STANDARD PLATE.
Where [2] appears, read: Test System: AMES SALMONELLA TYPHIMURIUM, Strain/Indicator: TA100, Metabolic Activation: NONE, Method: STANDARD PLATE.
Setting [3] is: Test System: AMES SALMONELLA TYPHIMURIUM, Strain/Indicator: TA1537, Metabolic Activation: NONE, Method: STANDARD PLATE.
Setting [4] is: Test System: AMES SALMONELLA TYPHIMURIUM, Strain/Indicator: TA1538, Metabolic Activation: NONE, Method: STANDARD PLATE.
[5] abbreviates: Test System: AMES SALMONELLA TYPHIMURIUM, Strain/Indicator: TA98, Metabolic Activation: RAT, LIVER, S-9, AROCLOR 1254, Method: STANDARD PLATE.
The mark [6] stands for this setting: Test System: AMES SALMONELLA TYPHIMURIUM, Strain/Indicator: TA100, Metabolic Activation: RAT, LIVER, S-9, AROCLOR 1254, Method: STANDARD PLATE.
[7] abbreviates: Test System: AMES SALMONELLA TYPHIMURIUM, Strain/Indicator: TA98, Metabolic Activation: NONE, Method: PREINCUBATION

Calls of active or inactive are those of the source. The rule behind the calls is not given here. Where a SMILES comes first, the peptide text is derived from it. [ ]: non-standard residue; d: D form. pGlu = O=C1CC[C@@H](C(=O)O)N1; Thz = O=C(O)[C@@H]1CSCN1

In the case of `CC(=O)Nc1ccc2[nH]c3ccccc3c2c1`, the mutagenic call was “inactive; negative” under setting [1]; “active; positive” (Test System: AMES SALMONELLA TYPHIMURIUM, Strain/Indicator: TA98, Metabolic Activation: RAT, LIVER, S-9, PHENOBARBITAL, Method: STANDARD PLATE); “inactive; negative” under setting [2]; “inactive; negative” (Test System: AMES SALMONELLA TYPHIMURIUM, Strain/Indicator: TA100, Metabolic Activation: RAT, LIVER, S-9, PHENOBARBITAL, Method: STANDARD PLATE); “inactive; negative” under setting [3]; “inactive; negative” (Test System: AMES SALMONELLA TYPHIMURIUM, Strain/Indicator: TA1537, Metabolic Activation: RAT, LIVER, S-9, PHENOBARBITAL, Method: STANDARD PLATE). Besides, the mutagenic call under setting [4] is “inactive; negative”; the mutagenic call (Test System: AMES SALMONELLA TYPHIMURIUM, Strain/Indicator: TA1538, Metabolic Activation: RAT, LIVER, S-9, PHENOBARBITAL, Method: STANDARD PLATE) is “active; positive”; the mutagenic call (Test System: AMES SALMONELLA TYPHIMURIUM, Strain/Indicator: TA1977, Metabolic Activation: NONE, Method: STANDARD PLATE) is “inactive; negative”; the mutagenic call (Test System: AMES SALMONELLA TYPHIMURIUM, Strain/Indicator: TA1977, Metabolic Activation: RAT, LIVER, S-9, PHENOBARBITAL, Method: STANDARD PLATE) is “inactive; negative”.
In the case of `CC(=O)/C=C/c1ccccc1`, the mutagenic call (Test System: AMES SALMONELLA TYPHIMURIUM, Strain/Indicator: TA98, Metabolic Activation: HAMSTER, LIVER, S-9, AROCLOR 1254, Method: STANDARD PLATE) is “inactive; negative”; the mutagenic call under setting [1] was “inactive; negative”; the mutagenic call under setting [5] was “inactive; negative”; the mutagenic call (Test System: AMES SALMONELLA TYPHIMURIUM, Strain/Indicator: TA100, Metabolic Activation: HAMSTER, LIVER, S-9, AROCLOR 1254, Method: STANDARD PLATE) is “active; positive”; the mutagenic call under setting [2] is “inactive; negative”; the mutagenic call under setting [6] is “active; positive”. Also, the mutagenic call by setting is: (Test System: Mouse lymphoma, Strain/Indicator: L5178Y (tk+/tk-), Metabolic Activation: None, Method: Suspension/plate) “active; positive”; (Test System: Mouse lymphoma, Strain/Indicator: L5178Y (tk+/tk-), Metabolic Activation: Rat, Liver, S-9, Aroclor 1254, Method: Suspension/plate) “inactive; negative”.
For the molecule `O=C1CC[C@@H](C(=O)N2CSC[C@H]2C(=O)O)N1` ([pGlu]-[Thz]-OH), the mutagenic call reads like this: under setting [1], “inactive; negative”; under setting [5], “inactive; negative”; under setting [2], “inactive; negative”; under setting [6], “inactive; negative”; (Test System: AMES SALMONELLA TYPHIMURIUM, Strain/Indicator: TA1535, Metabolic Activation: NONE, Method: STANDARD PLATE) “inactive; negative”; (Test System: AMES SALMONELLA TYPHIMURIUM, Strain/Indicator: TA1535, Metabolic Activation: RAT, LIVER, S-9, AROCLOR 1254, Method: STANDARD PLATE) “inactive; negative”. Moreover, the mutagenic call under setting [3] is “inactive; negative”; the mutagenic call (Test System: AMES SALMONELLA TYPHIMURIUM, Strain/Indicator: TA1537, Metabolic Activation: RAT, LIVER, S-9, AROCLOR 1254, Method: STANDARD PLATE) is “inactive; negative”; the mutagenic call under setting [4] was “inactive; negative”; the mutagenic call (Test System: AMES SALMONELLA TYPHIMURIUM, Strain/Indicator: TA1538, Metabolic Activation: RAT, LIVER, S-9, AROCLOR 1254, Method: STANDARD PLATE) was “inactive; negative”; the mutagenic call (Test System: MOUSE LYMPHOMA, Strain/Indicator: L5178Y (TK+/TK-), Metabolic Activation: NONE, Method: SUSPENSION/PLATE) is “inactive; negative”; the mutagenic call (Test System: MOUSE LYMPHOMA, Strain/Indicator: L5178Y (TK+/TK-), Metabolic Activation: RAT, LIVER, S-9, AROCLOR 1254, Method: SUSPENSION/PLATE) is “inactive; negative”. Besides, the mutagenic call was “inactive; negative” (Test System: UDS HELA CELLS, Strain/Indicator: THY INCORP, Metabolic Activation: NONE, Method: AUTORADIOGRAPHY) and “inactive; negative” (Test System: UDS HELA CELLS, Strain/Indicator: THY INCORP, Metabolic Activation: RAT, LIVER, S-9, AROCLOR 1254, Method: AUTORADIOGRAPHY).
In the case of `C[C@H](CCC(=O)O)[C@H]1CC[C@H]2[C@@H]3CC[C@@H]4CC(=O)CC[C@]4(C)[C@H]3CC(=O)[C@]12C`, the mutagenic call (Test System: AMES SALMONELLA TYPHIMURIUM, Strain/Indicator: TA98, Metabolic Activation: NONE, Method: FLUCTUATION TEST) is “inactive; negative”; the mutagenic call under setting [7] was “inactive; negative”; the mutagenic call (Test System: AMES SALMONELLA TYPHIMURIUM, Strain/Indicator: TA100, Metabolic Activation: NONE, Method: FLUCTUATION TEST) is “inactive; negative”.
For `C=C1C[C@@]23CC[C@H]4[C@@](C)(CCC[C@@]4(C)C(=O)O)[C@@H]2CC[C@@H]1C3`, for the setting “Test System: AMES SALMONELLA TYPHIMURIUM, Strain/Indicator: TM677, Metabolic Activation: RAT, LIVER, S-9, AROCLOR 1254, Method: PREINCUBATION”, the mutagenic call is “inactive; negative”.
Turning to `Cn1c(NS(=O)(=O)O)nc2c3nc(CO)cnc3ccc21`, the mutagenic call runs as follows: under setting [7], “inactive; negative”; (Test System: AMES SALMONELLA TYPHIMURIUM, Strain/Indicator: TA98, Metabolic Activation: RAT, LIVER, S-9, AROCLOR 1254, Method: PREINCUBATION) “inactive; negative”.
